{"source": "patent US20100331267A1", "about": "“USE OF CYCLOHEXANEHEXOL DERIVATIVES IN THE TREATMENT OF ALPHA-SYNUCLEINOPATHIES” (priority 2007, published 2010)", "key": {"[1]": {"biological_target": "T1, A53T mutant of α-synuclein (Homo sapiens, UniProt P37840, A53T)", "T1 construct": "made in house; host or cells: E. coli", "experiment": "Negative stain electron microscopy of α-synuclein fibre formation", "assay_type": "biochemical", "description": "(§1) α-Synuclein will be purified from E. coli expressing the native and the aggregation prone A53T mutant proteins via chromatography on a Q-sepharose column.[10, 12] Recombinant α-synuclein spontaneously aggregates into fibers upon incubation at high concentrations 2 mg/ml. To assay the α-synuclein aggregation the proteins will then be incubated at 37° C. (50 mM Tris, pH 7.5) with shaking in the presence and absence of the inositols in varying ratios from 1:1 to 1:100 protein:inositol. The products of these incubations will be evaluated with the biophysical techniques discussed below. Negative stain electron microscopy is an excellent tool to examine the gross morphology of the protein aggregates formed. Samples will be examined as a function of time and scyllo-inositol concentrations."}, "α-synuclein": {"biological_target": "T2, α-synuclein (Homo sapiens, UniProt P37840, A53T)", "T2 construct": "made in house; host or cells: E. coli", "experiment": "Thioflavin T binding assay of α-synuclein aggregation", "assay_type": "biochemical", "conditions": "α-synuclein 2 mg/ml, 24 hrs at 37° C., scyllo-inositol 1:20 ratio by weight", "description": "as §1, with “below.” for “below. Negative stain electron microscopy is an excellent tool to examine the gross morphology of the protein aggregates formed. Samples will be examined as a function of time and scyllo-inositol concentrations.”\nFluorimetry. Fluorescent probes are exceptionally useful to follow the aggregation kinetics of proteins. Two fluorescent probes, Thioflavin T (ThT) and 1-Anilinonaphthalene-8-sulfonic acid (ANS) are the most commonly used probes for α-synuclein. […] Thus, the amyloid fibrils formed from the proteins used in these studies bind ThT and binding is monitored by an increase in fluorescence intensity. Oligomers other than the amyloid fibrils can also have significant β-sheet character and bind ThT. ANS binds to hydrophobic unstructured proteins and is complementary to ThT fluorescence assays. Upon binding in a hydrophobic environment ANS undergoes an increase in quantum yield and a blue shift in its fluorescence emission maximum."}, "Aβ peptide fibrils": {"test_system": "Aβ peptide fibrils", "conditions": "stated as previously shown; cited from earlier work"}}, "data": [{"smiles": "O[C@H]1[C@H](O)[C@@H](O)[C@H](O)[C@@H](O)[C@@H]1O", "note": "[scyllo-inositol]", "values": [{"measurement": "aggregates produced (negative stain EM, FIG. 1)", "setting": "[1]; A53T mutant, after 24 hours of incubation at 37° C., without compound: characteristic α-synuclein fibrils", "value": "a few thin fibrils with the majority of the visible protein being present as amorphous aggregates"}, {"measurement": "α-synuclein fibres formed (negative stain electron microscopy, FIG. 1 legend)", "setting": "[1]; α-synuclein 2 mg/ml, scyllo-inositol 1:20 ratio by weight, 2 days at 37° C., alone: long mature fibres", "value": "only small aggregates could be detected"}, {"measurement": "Thioflavin T fluorescence (FIG. 2)", "setting": "α-synuclein", "value": "fluorescence increases upon short incubations with scyllo-inositol and the fluorescence decreases with time"}, {"measurement": "disaggregation of preformed Aβ peptide fibrils", "setting": "Aβ peptide fibrils", "value": "able to disaggregate preformed Aβ peptide fibrils"}]}]}
